Source: patent US6894033B2, “Combination therapies using vitamin B12 and therapeutic agents for treatment of viral, proliferative and inflammatory diseases” (Transition Therapeutics Inc., priority 2001, dated 2005)
Like-named read-outs stand apart in the source and are kept apart here.

What was measured:
[1] = system: Human Hepatitis B Virus (HBV); assay: HBV DNA copies in HepG2.2.15 culture medium by Lightcycler real-time PCR; assay type: cell-based; conditions: for Antiviral effect on HBV (HBV DNA copies): HepG2.2.15, 9 days
Procedure: HepG2.2.15 cells, a cell line that was stably transfected with HBV genome, were cultured in RPMI-1640 with fetal bovine serum at either 2 or 4% final concentration and with no antibiotics. The cells were seeded in a 96-well plate at a density of 2×10^4 cells/well and grown overnight. […] Triplicate samples were measured for each concentration. The cells were incubated at 37° C. for 9 days. Drug/medium was changed daily. On day 9, the culture media containing released HBV virions were harvested and used to extract HBV DNA.
HBV DNA from drug-treated HepG2.2.15 cell culture media was extracted using QIAmp DNA mini kit—blood and body fluid spin column according to manufacturer's instructions. Briefly, 10 μl of QIAGEN proteinase K was added to 1.5 ml Eppendorf tube. 50 μl cell supernatant and 50 μl AL buffer were added to the tube. The samples were incubated at 56° C. water bath for 3 h. At the end of incubation, 50 μl ethanol was added to the sample. The mixture was transferred to a QIAamp spin column and centrifuged at 14000 rpm for 1 min. The filtrate was discarded. 50 μl Buffer AW1 was then added to the column and centrifuged at 14000 rpm for 1 min. Following washing and recentrifugation, DNA was eluted in 50 μl dH2O.
HBV DNA was detected by real-time PCR using Lightcycler assay. The reaction was performed in 20 μl, comprising the following: 6.4/4.8 μl dH2O, 2 μl 25 mM MgCl2, 1 μl 10 μM sense primer, 1 μl 10 μM antisense primer, 8/1.6 μl LightCycler Probe (fluorescein-labeled, 5 μM), 0.8/1.6 μl LightCycler Probe 2 (LC Red 640-labeled, 10 μM), 2 μl LC FastStart DNA Master Hyb Probes, 1 μl uracil DNA glycosylase.
PCR mix was aliquoted into glass capillaries and 5 μl DNA template was then added to the PCR mix. A range of HBV plasmid DNA (1×10^8, 1×10^7, 1×10^6, . . . , 1×10^2, 25 copies) was used as standards for quantitative analysis.
The antiviral effects of the test compounds were calculated using DNA copy numbers as an endpoint. Specifically, the antiviral activities were calculated based on the following formula: Antiviral effect=(Ccontrol−Ctest)/Ccontrol whereby the Ccontrol is the HBV DNA copies in the control wells (without drug); the Ctest is the HBV DNA copies in the test wells with a given concentration of a test compound.
The enhancing or antagonistic effect was analyzed mathematically using the median effect equation (Chou and Talalay, 1984) by computer software CalcuSyn (Biosoft, St. Louis).

[2] = system: Herpes Simplex Virus Type 2 (HSV-2); assay: CPE inhibition assay in MRC-5 cells, HSV-2; assay type: cell-based
[3] = system: Vesticular Stomatitis Virus (VSV); assay type: cell-based; conditions: MRC-5; for Anti-viral activity (protection of CPE) / viral activity, VSV: vitamin B12 = hydroxocobalamin (HC)
[4] = mice; doses up to 1 g/kg body weight; cited from earlier work
[5] = rabbits; doses up to 100 mg/kg body weight; cited from earlier work
ND4 mouse model = assay: Clinical signs in the ND4 demyelinating transgenic mouse model; assay type: in vivo; conditions: ND4 mice; for mean clinical scores / clinical signs (FIG. 5): intraperitoneal, paclitaxel alone 20 mg/kg once a week, vitamin B12 10 mg/kg once a week, combination with paclitaxel 5 mg/kg three times per week
Excerpt: In this model, the severity of the clinical signs increased until a maximum around 6 months with animals dying around 8 to 9 months of age. Clinical signs assessed included general shaking, seizures, head jerk, hind limb and tail shiver, wobbly gait and limp tail. The scale of zero (absence) to four (constant and uncontrollable movements) was used for each of the clinical signs.
All treatments began when the mice reached 3 months of age at which time signs of demyelinating disease were evident. Treatment was stopped at time of sacrifice.
Treatment was started when the animals were 3 months of age and continued for 11 weeks. The animals were evaluated twice a week for clinical signs and the scores were averaged on a weekly basis. Refer to example 1 for more experimental details.
The severity of the clinical signs increase until a maximum around 6 months with animals dying around 8 to 9 months of age. Clinical signs assessed include general shaking, seizures, head jerk, hind limb and tail shiver, wobbly gait and limp tail. The scale of zero (absence) to four (constant and uncontrollable movements) was used for each of the clinical signs.
Mice (4 animals per group) were treated with vitamin B12 (cyanocobalamin) alone at a dose of 15 mg/kg, weekly and in combination with P-16. P-16 was administered alone and in combination with vitamin B12 at a dose of 1 mg/kg, tri-weekly. All treatments began when the mice reached 3 months of age at which time signs of demyelinating disease were evident. Treatment was stopped at time of sacrifice.
The ND4 transgenic mice received one of the following treatments through intraperitoneal injections: 1) paclitaxel (TAXOL®) at a dose of 20 mg/kg once a week; 2) vitamin B12 at a dose of 10 mg/kg once a week and paclitaxel (TAXOL®) at a dose of 5 mg/kg three times per week; and 3) vitamin B12 at a dose of 10 mg/kg once a week. All treatments started when the mice reached 3 months of age, at which time signs of demyelinating disease were evident.

GFAP [6] = assay: GFAP in brain of ND4 mice (immunohistochemistry, slot blot of homogenates); assay type: in vivo, mouse; conditions: Vitamin B12 15 mg/kg, Normal 1.0, untreated ND4 4.4
Excerpt: After the various treatments, the mice were sacrificed and brain sections removed for GFAP staining and quantitation. The brain region of hippocampus, adjacent to the dentate gyrus was fixed in formalin, paraffin-embedded and sectioned at 5 μm. Immunohistochemistry with anti-GFAP antibody was used to stain for GFAP. Glial fibrillary acidic protein was a protein expressed by astrocytes (particularly reactive astrocytes) and was used as a marker for these cells.
In addition, quantification of GFAP within the brains of normal, ND4 untreated and ND4 treated mice was carried out to provide a more precise level of protein expression. Whole brain homogenates were assayed for GFAP by slot blot. Brains were homogenized in a buffer containing 50 mM Tris-HCl pH 7.6, 0.5 mM DTT, 1 mM EDTA, and 0.43 mM PMSF. The homogenate was centrifuged at 11000 rpm for 30 min at 4° C. The pellet was isolated and resuspended in a buffer containing 10 mM sodium phosphate pH 7.5, 2 mM DTT, 6 mM urea and 1 mM EDTA. Samples were loaded onto the slot blot apparatus (BioDot, Biorad) under vacuum. The blots were reacted with anti-GFAP antibodies and then a secondary antibody. The blots were developed and the relative amounts of each band quantified.

GFAP [7] = assay: GFAP in brain of EAE mice (immunohistochemistry, slot blot of homogenates); assay type: in vivo, mouse
Procedure: EAE mice were treated as described previously in Example 2. After the various treatments, the mice were sacrificed and brain sections removed for GFAP staining and quantitation. The brain region of hippocampus, adjacent to the dentate gyrus was fixed in formalin, paraffin-embedded and sectioned at 5 μm. Immunohistochemistry with anti-GFAP antibody was used to stain for GFAP.
In addition, quantification of GFAP within the brains of normal, EAE untreated and EAE treated mice was carried out to provide a more precise level of protein expression. Whole brain homogenates were assayed for GFAP by slot blot. Brains were homogenized in a buffer containing 50 mM Tris-HCl pH 7.6, 0.5 mM DTT, 1 mM EDTA, and 0.43 mM PMSF. The homogenate was centrifuged at 11000 rpm for 30 min at 4° C. The pellet was isolated and resuspended in a buffer containing 10 mM sodium phosphate pH 7.5, 2 mM DTT, 6 mM urea and 1 mM EDTA. Samples were loaded onto the slot blot apparatus (BioDot, Biorad) under vacuum. The blots were reacted with anti-GFAP antibodies and then a secondary antibody. The blots were developed and the relative amounts of each band quantified.

[8] = Toxicity in the applicant's animal studies; assay type: in vivo; conditions: concentrations of 15 mg/kg of vitamin B12 in mice
[9] = system: Mouse ascite astrocytoma cells; conditions: overnight, no treatment 0.8955
Procedure: Mouse ascite astrocytoma cells were seeded in a 96-well plate and grown to 60% confluence in standard growth conditions.
96® AQueous One Solution Cell Proliferation Assay was used as a colorimetric method for determining the number of viable cells in proliferations. […] 96® AQueous One Solution Reagent directly to culture wells, incubating for 1-4 hours and then recording absorbance at 490 nm with a 96 well plate reader. The quantity of formazan product as measured by the amount of 490 nm absorbance is known in the art to be directly proportional to the number of living cells in the culture.

[10] = HC 1 μg/ml, fraction (ODTest−OD0)/(ODControl−OD0)
[11] = Vitamin B12 (methylcobalamin) 25 μg/ml

**Q.** Which results are given for `C/C1=C2/[N-][C@H]([C@H](CC(N)=O)[C@@]2(C)CCC(=O)NC[C@@H](C)OP(=O)([O-])O[C@H]2[C@@H](O)[C@@H](n3cnc4cc(C)c(C)cc43)O[C@@H]2CO)[C@]2(C)N=C(/C(C)=C3N=C(/C=C4N=C1[C@@H](CCC(N)=O)C\4(C)C)[C@@H](CCC(N)=O)[C@]\3(C)CC(N)=O)[C@@H](CCC(N)=O)[C@]2(C)CC(N)=O.[Co+3].[OH-]` [HC, hydroxocobalamin]?
**A.** Antiviral effect on HBV (HBV DNA copies) ([1]; HC 1 μg/ml, fraction (Ccontrol−Ctest)/Ccontrol): 0.001; Antiviral effect on HBV (HBV DNA copies) ([1]; HC 10 μg/ml, fraction): 0.001; Antiviral effect on HBV (HBV DNA copies) ([1]; HC 100 μg/ml, fraction): 0.001; Antiviral effect on HBV (HBV DNA copies) ([1]; HC 500 μg/ml, fraction): 0.112; Antiviral effect on HSV-2 (CPE inhibition) [2, 10]: 0.014; Antiviral effect on HSV-2 (CPE inhibition) ([2]; HC 10 μg/ml, fraction): 0.032; Antiviral effect on HSV-2 (CPE inhibition) ([2]; HC 100 μg/ml, fraction): 0.056; Antiviral effect on HSV-2 (CPE inhibition) ([2]; HC 500 μg/ml, fraction): 0.166; Antiviral effect on HSV-2 (CPE inhibition) ([2]; HC 1000 μg/ml, fraction): 0.210; Antiviral effect on VSV (CPE inhibition) [3, 10]: ≤ 0.001; Antiviral effect on VSV (CPE inhibition) ([3]; HC 10 μg/ml, fraction): ≤ 0.001; Antiviral effect on VSV (CPE inhibition) ([3]; HC 100 μg/ml, fraction): 0.039; Antiviral effect on VSV (CPE inhibition) ([3]; HC 500 μg/ml, fraction): ≤ 0.001; Antiviral effect on VSV (CPE inhibition) ([3]; HC 1000 μg/ml, fraction): 0.002; acute toxicity [4]: no toxicities were observed; acute toxicity [5]: no toxicities were observed

**Q.** What does the source list for interferon-alpha?
**A.** Antiviral effect on HSV-2 (CPE inhibition) ([2]; interferon 5 IU/ml, fraction): 0.093; Antiviral effect on HSV-2 (CPE inhibition) ([2]; interferon 10 IU/ml, fraction): 0.139; Antiviral effect on HSV-2 (CPE inhibition) ([2]; interferon 50 IU/ml, fraction): 0.218; Antiviral effect on HSV-2 (CPE inhibition) ([2]; interferon 100 IU/ml, fraction): 0.282; Antiviral effect on HSV-2 (CPE inhibition) ([2]; interferon 500 IU/ml, fraction): 0.271; Anti-viral activity (protection of CPE) / viral activity, VSV [3]: significantly increased; Antiviral effect on VSV (CPE inhibition) ([3]; interferon 5 IU/ml, fraction): 0.296; Antiviral effect on VSV (CPE inhibition) ([3]; interferon 10 IU/ml, fraction): 0.387; Antiviral effect on VSV (CPE inhibition) ([3]; interferon 50 IU/ml, fraction): 0.950; Antiviral effect on VSV (CPE inhibition) ([3]; interferon 100 IU/ml, fraction): 0.996; Antiviral effect on VSV (CPE inhibition) ([3]; interferon 500 IU/ml, fraction): 0.942

**Q.** With “CSTMMSRSHKTRSHHV (Synthetically generated peptide) [P-16]” as the molecule, how does the “clinical signs of MS (FIG. 3)” value (ND4 mouse model; P-16 1 mg/kg tri-weekly, vitamin B12 (cyanocobalamin) 15 mg/kg weekly) read?
**A.** Its value is “attenuation of clinical signs”.

**Q.** For cyanocobalamin [Vitamin B12], which “mean clinical scores / clinical signs (FIG. 5)” value (ND4 mouse model) is on record?
**A.** The value was “significant attenuation of mean clinical scores”.

**Q.** And the “clinical signs of MS (FIG. 1)” value (ND4 mouse model; vitamin B12 (cyanocobalamin) 15 mg/kg weekly, interferon-beta 1a 5000 IU tri-weekly, from 3 months of age)?
**A.** The value was “attenuation of clinical signs”.

**Q.** And the “Relative Amount of GFAP (+/−SD)” value (GFAP [6])?
**A.** The value was 2.8 +/− 0.1.

**Q.** And the “Relative Amount of GFAP (+/−SD)” value (GFAP [7]; EAE brain homogenates, Vitamin B12 15 mg/kg, Normal 1.0, untreated EAE 4.2)?
**A.** The value was 4.2 +/− 0.2.

**Q.** And the “levels of activated astrocytes and levels of GFAP” value (GFAP [7]; EAE mice treated as in Example 2)?
**A.** The value was “not effective in decreasing the levels of GFAP”.

**Q.** And the “viral activity (HBV)” value ([1]; HepG2.2.15, vitamin B12 = hydroxocobalamin (HC))?
**A.** The value was “not”.

**Q.** And the “Anti-viral activity (protection of CPE) / viral activity, VSV” value [3]?
**A.** Its value is “significantly increased”.

**Q.** What about the toxicity in animals [8] of the same molecule?
**A.** Its toxicity in animals is “no toxicity has been found”.

**Q.** What about the “Measure of Proliferative Activity (Absorbance at 490 nm)” value [9, 11] of the same molecule?
**A.** The value was 0.2985.

**Q.** Which “mean clinical scores / clinical signs (FIG. 5)” value (ND4 mouse model) does the source give for `CC(=O)O[C@H]1C(=O)[C@@]2(C)[C@H]([C@H](OC(=O)c3ccccc3)[C@]3(O)C[C@H](OC(=O)[C@H](O)[C@@H](NC(=O)c4ccccc4)c4ccccc4)C(C)=C1C3(C)C)[C@]1(OC(C)=O)CO[C@@H]1C[C@@H]2O` [paclitaxel] here?
**A.** Its value is “significant attenuation of mean clinical scores”.

**Q.** With `C/C1=C2/[N-][C@H]([C@H](CC(N)=O)[C@@]2(C)CCC(=O)NC[C@H](C)OP(=O)([O-])O[C@H]2[C@@H](O)[C@@H](n3cnc4cc(C)c(C)cc43)O[C@@H]2CO)[C@]2(C)N=C(/C(C)=C3N=C(/C=C4N=C1[C@@H](CCC(N)=O)C\4(C)C)[C@@H](CCC(N)=O)[C@]\3(C)CC(N)=O)[C@@H](CCC(N)=O)[C@]2(C)CC(N)=O.[CH3-].[Co+3]` [vitamin B12 (methylcobalamin), methylcobalamin] as the molecule, how does the “Measure of Proliferative Activity (Absorbance at 490 nm)” value [9, 11] read?
**A.** The value was “decrease in proliferative activity”.

B1: Mouse Interferon-beta: mouse interferon-beta used on mouse astrocytoma cells (protein, UniProt P01575 22-182, looked up)
Interferon beta: INYKQLQLQERTNIRKCQELLEQLNGKINLTYRADFKIPMEMTEKMQKSYTAFAIQEMLQNVFLVFRNNFSSTGWNETIVVRLLDELHQQTVFLKTVLEEKQEERLTWEMSSTALHLKSYYWRVQRYLKLMKYNSYAWMVVRAEIFRNFLIIRRLTRNFQN
**Q.** What does the source list for B1?
**A.** Measure of Proliferative Activity (Absorbance at 490 nm) ([9]; Mouse Interferon-beta 500 IU/ml): 0.3855; Measure of Proliferative Activity (Absorbance at 490 nm) ([9]; Mouse Interferon-beta 500 IU/ml, listed as mice interferon-beta): decrease in proliferative activity
